# Measurements from patent US12233129B2, “Methods and compositions for the treatment of cancer” (priority 2019, dated 2025).
# “Also recorded” adds a separate entry of the source.
# B1: recombinant human UBXN2A: recombinant GST-tag human UBXN2A protein (SignalChem) (protein, UniProt P68543 1-259, looked up)
# UBX domain-containing protein …: MKDVDNLKSIKEEWVCETGSDNQPLGNNQQSNCEYFVDSLFEEAQKVSSKCVSPAEQKKQVDVNIKLWKNGFTVNDDFRSYSDGASQQFLNSIKKGELPSELQGIFDKEEVDVKVEDKKNEICLSTKPVFQPFSGQGHRLGSATPKIVSKAKNIEVENKNNLSAVPLNNLEPITNIQIWLANGKRIVQKFNITHRVSHIKDFIEKYQGSQRSPPFSLATALPVLRLLDETLTLEEADLQNAVIIQRLQKTASFRELSEH
# modifications: GST tag
# Experiments:
# [1] = tested on: SW-48 (WT-p53) colon cancer cells; assay: Cell viability / clonogenic survival with and without mot-2 inhibitor MKT-077; format: cell-based, human; design: dose or concentration left out as unconfirmed; conditions: VTD with mot-2 inhibitor MKT-077, 72 hours
# Procedure: We decided to confirm whether VTD-induced tumor suppression is indeed mediated via the UBXN2A-mot-2-p53 axis (FIG. 18H). After initial verification with WB (FIG. 18A), HCT-116 (p53+/+ and p53 −/−) and LoVo were treated with VTD for 24, 48, and 72 hours (FIG. 18B-D). […] We defined this phenomenon as a delayed cytotoxic response, since it occurs through UBXN2A transcription, as previously described for other anti-cancer agents. […] In the second set of experiments, we treated two stable UBXN2A silenced clones of HCT-116 along with controls with VTD. […] Staurosporine-treated cells were used as a positive control (S4F). […] Finally, to understand the contribution of mot-2 to the anti-cancer mechanism of VTD, we used a mot-2 inhibitor known as MKT-077 [7] along with VTD in well-differentiated SW-48 (WT-p53) colon cancer cells for 72 hours. Due to the critical role of mot-2 in the mitochondria, we could not use a silencing strategy for mot-2 in this set of experiments.
# FIG. 18: Veratridine (VTD) functions via the UBXN2A-mot-2-p53 axis. (A) WB confirmed the presence and the absence of p53 protein in HCT-116 p53^(+/+) and HCT-116 p53^(−/−) cancer cell lines, respectively. […] (F) In another set of experiments, UBXN2A-silenced cells were treated with VTD (100, 200, and 300 μM) for 24 hours. Cells were then labelled with Sytox Red followed by flow cytometry analysis. […] (G) SW48 well-differentiated colon cancer cells with WT-p53 were treated with MKT-077 (5 mg/ml), an mot-2 inhibitor, along with VTD for 72 hours. […] (H) This flowchart recapped the sequence of proteins which activate and function upon VTD exposure to decrease cell viability. The data is shown as mean±SEM of three independent experiments (n=3) in triplicate where *p<0.05 using Benferroni's modified student's t-test.
# UBXN2A = assay: RT-PCR and western blot of UBXN2A in etoposide-treated HCT-116 cells; format: cell-based, human
# LoVo [2] = assay: Annexin V early apoptosis, VTD plus etoposide; format: cell-based, human; conditions: VTD 10-200 μM plus etoposide 5 μM, 24 hours
# Procedure: (§1) The viability of cells was calculated as % of control.
# (§2) Cells were then stained with Annexin V apoptotic marker.
# HCT-116 [3] = assay: Annexin V early apoptosis, VTD plus etoposide; format: cell-based, human; conditions: VTD 10-200 μM plus etoposide 5 μM, 24 hours
# Procedure: as §1, §2
# p53 = assay: Western blot of p53 in cytoplasm and nuclear fractions of etoposide-treated HCT-116 cells; format: cell-based, human; conditions: 20 and 50 μM etoposide, 24 h
# From the text: Small molecules, p53 c-terminus peptides, and silenced mot-2 abrogate mot-2-p53 complexes, resulting in p53 nuclear localization. Because UBXN2A is capable of releasing p53 from mot-2, we decided to determine whether UBXN2A can lead to p53 nuclear accumulation in a similar mechanism. HCT-116 cells were transiently transfected with different amounts of UBXN2A plasmid. Exogenous UBXN2A was detected dominantly in the cytoplasm fraction (FIG. 4a), and, therefore, it is an ideal model to identify the cellular consequences of UBXN2A gain-of-function. After 48 h, nuclear and cytoplasmic fractions were collected, followed by WB analysis (FIGS. 4a-d). […] Similar to several previously reported scenarios,^23 co-upregulation of UBXN2A with p53 may be essential to inhibiting mot-2 and delivering maximum p53 into nuclei during the initiation of genotoxic stress. Similar results were obtained in response to single DNA-strand damage produced by UVB irradiation. In the next step, we decided to determine whether UBXN2A increases the transcriptional activities of p53. We found overexpression of UBXN2A led to upregulation of BAX protein^24 (FIG. 4g). In addition, the level of cleaved PARP increased in the presence of overexpressed UBXN2A (FIG. 4g). […]
# LoVo [4] = tested on: LoVo
# Procedure: (§3) Besides the cell viability assay, we decided to measure the apoptotic activity in the above combination therapy.
# (§4) Cells were treated with 5-FU (5-100 μM) and etoposide (1-50 μM) along with VTD (30 and 100 μM respectively) in two different set of experiments for 24 hours.
# (§5) An MTT (3[4, 5-dimethylthiazol-2-yl]-2, 5-diphenyltetrazolium bromide) assay was performed to measure the viability of cells. Briefly, cells were seeded at a density of 10×10^3 cells per well in phenol-red free growth media. After 24 hours, cells were treated with various concentrations of VTD±5-FU or etoposide. After incubation, an MTT dye was added to the cells for 2-4 hours. The absorbance of samples was measured at 630 nm using an EXL808 absorption spectrophotometer (Biotek, Winooski). The viability of cells was calculated as % of control. Cell detachment and clonogenic survival assays were conducted as previously described. Early apoptosis, caspase-3, cleaved PARP and Sytox Red (Life Technology, NY, USA) were measured by the Accuri C6 flow cytometer system (BD Pharmingen, MD, USA).[54]
# (§6) (A-H) (A-C) HCT-116 and (D-F) LoVo were treated with VTD (10-300 μM) for 24, 48, and 72 hours. A suboptimal dose of Etoposide (ETO) ([…]) was added to cells for the last 24 hours only. The viability of cells was determined as % of control (untreated cells) using an MTT assay. […] (G-H) HCT-116 (G) and LoVo (H) cells were treated with VTD (10-200 μM) and a suboptimal dose of ETO (5 μM) for 24 hours. Cells were then stained with Annexin V apoptotic marker. […] (I-L) HCT-116 and LoVo cells were treated with different doses of 5-FU (5-100 μM, I-J) and ETO (1-50 μM, K-L) along with VTD (30 μM and 100 μM respectively) for 24 hours.
# HCT-116 [5] = tested on: HCT-116
# Procedure: as §3, §4, §5, §6
# p53-mot-2 = target: T1, p53-mot-2 (Homo sapiens, UniProt P38646); assay: In vitro competition immunoprecipitation assay (mot-2, p53, recombinant UBXN2A); format: binding
# T1 construct: purchased SignalChem (Richmond, CANADA)
# T1 sequence (P38646 47-679): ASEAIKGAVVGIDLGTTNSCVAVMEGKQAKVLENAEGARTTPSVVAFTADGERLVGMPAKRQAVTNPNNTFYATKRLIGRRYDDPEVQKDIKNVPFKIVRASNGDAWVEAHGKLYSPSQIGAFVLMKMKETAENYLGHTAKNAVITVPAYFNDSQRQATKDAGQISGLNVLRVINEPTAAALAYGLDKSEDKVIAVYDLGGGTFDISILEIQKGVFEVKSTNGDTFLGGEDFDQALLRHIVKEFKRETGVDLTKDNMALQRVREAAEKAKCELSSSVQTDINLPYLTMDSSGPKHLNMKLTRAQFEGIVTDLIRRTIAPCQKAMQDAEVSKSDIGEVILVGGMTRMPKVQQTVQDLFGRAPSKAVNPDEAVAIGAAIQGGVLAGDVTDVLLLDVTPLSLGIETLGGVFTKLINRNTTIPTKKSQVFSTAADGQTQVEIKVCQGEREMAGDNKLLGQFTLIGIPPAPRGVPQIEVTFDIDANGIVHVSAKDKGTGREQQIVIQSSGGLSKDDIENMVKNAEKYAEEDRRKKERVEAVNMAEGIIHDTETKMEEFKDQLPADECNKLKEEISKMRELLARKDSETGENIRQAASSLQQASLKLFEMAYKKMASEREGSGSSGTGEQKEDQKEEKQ
# From the text: Because mot-2 binds to the […] of p53 and sequesters WT-p53 in the cytoplasm, we asked whether binding UBXN2A to mot-2 can alter mot-2's affinity for p53. […] That is, the two complexes might be mutually exclusive. To further determine whether the binding of mot-2 to UBXN2A decreases the binding of mot-2 to p53, we performed two set of immunoprecipitation experiments with recombinant UBXN2A. FIG. 3a describes an in vitro competition immunoprecipitation assay system containing mot-2, p53, and an increasing amount of recombinant UBXN2A. […] The lowest binding between p53-mot-2 was observed when UBXN2A and mot-2 were present in approximately a 1:1 ratio by their molecular mass (lane 1 versus lane 2). In FIG. 3b, cytosolic fractions enriched with mot-2 and p53 proteins (fractions 3-5, FIG. 2e) were incubated with recombinant GST-tag human UBXN2A protein. After the initial 2 h of incubation, samples were subjected to immunoprecipitation with anti-p53 antibodies. GST-UBXN2A and endogenous mot-2 ratio was 2.5:1 in the reaction. […] Next, we decided to verify whether endogenous UBXN2A can interfere with mot-2-p53 binding using an ex vivo model. […]
# FIG. 3 UBXN2A and p53 compete for binding to mot-2. […] Mot-2 proteins were eluted from the beads and analyzed by western blotting using an anti-mot-2 antibody. […]
molecule,measurement,setting,value
CCn1c(=O)/c(=C2\Sc3ccccc3N2C)s/c1=C\c1cccc[n+]1CC.[Cl-] [MKT-077],cell viability / colony number,[1],neutralizes the cytotoxic effect of VTD
COc1cc([C@@H]2c3cc4c(cc3[C@@H](O[C@@H]3O[C@@H]5CO[C@@H](C)O[C@H]5[C@H](O)[C@H]3O)[C@H]3COC(=O)[C@H]23)OCO4)cc(OC)c1O [etoposide],UBXN2A protein,"UBXN2A; etoposide 20 and 50 μM, 24 h",increased; also recorded: significant upregulation of UBXN2A
same,UBXN2A mRNA,UBXN2A; etoposide 24 h,increased; also recorded: enhances transcription of UBXN2A
same,early apoptosis (Annexin V),LoVo [2],significantly sensitizes
same,early apoptosis (Annexin V),HCT-116 [3],significantly sensitizes
same,p53 upregulation and nuclear localization,p53,upregulation and nuclear localization of p53 becomes significant
same,"cell viability (MTT), combination",LoVo [4],significantly enhanced the VTD-induced decrease in cell viability
same,effectiveness of etoposide alone (MTT),"LoVo [4]; LoVo versus HCT-116, time-dependent",more effectiveness in well differentiated cells (LoVo) than HCT-116 cells
same,"cell viability (MTT), combination",HCT-116 [5],significantly enhanced the VTD-induced decrease in cell viability
B1,mot-2 protein-bound p53,"p53-mot-2; HCT-116 cytosolic fractions 3-5, GST-UBXN2A to endogenous mot-2 ratio 2.5:1, 2 h",decreased the amount of mot-2 protein-bound p53
same,mot-2 pulled down by anti-p53 antibodies,"p53-mot-2; recombinant GST-p53, GST-mot-2, increasing amounts of UBXN2A",decreased the intensity of mot-2 bands
